In article doi:10.1101/2021.04.08.439011v1 (biorxiv, 2021):

Experiments:
Conditions in all cases: 1 µM; binder
PIK3CA(H1047L) = PIK3CA(H1047L) (Homo sapiens, UniProt P42336, H1047L)
TAOK2 = TAOK2 (Homo sapiens, UniProt Q9UL54)
RET(V804L) = RET(V804L) (Homo sapiens, UniProt P07949, V804L)
MET(Y1235D) = MET(Y1235D) (Homo sapiens, UniProt P08581, Y1235D)
EGFR(L858R) = EGFR(L858R) (Homo sapiens, UniProt P00533, L858R)
RIOK1 = RIOK1 (Homo sapiens, UniProt Q9BRS2)
LIMK2 = LIMK2 (Homo sapiens, UniProt P53671)
TSSK1B = TSSK1B (Homo sapiens, UniProt Q9BXA7)
PKAC-beta = PKAC-beta (Homo sapiens, UniProt P22694)
SNRK = SNRK (Homo sapiens, UniProt Q9NRH2)
ADCK4 = ADCK4 (Homo sapiens, UniProt Q96D53)
GRK7 = GRK7 (Homo sapiens, UniProt Q8WTQ7)
NEK6 = NEK6 (Homo sapiens, UniProt Q9HC98)
NEK2 = NEK2 (Homo sapiens, UniProt P51955)
NEK10 = NEK10 (Homo sapiens, UniProt Q6ZWH5)
FRK = FRK (Homo sapiens, UniProt P42685)
ALK(L1196M) = ALK(L1196M) (Homo sapiens, UniProt Q9UM73, L1196M)
DAPK1 = DAPK1 (Homo sapiens, UniProt P53355)
GRK4 = GRK4 (Homo sapiens, UniProt P32298)
ERK2 = ERK2 (Homo sapiens, UniProt P28482)
BMPR1A = BMPR1A (Homo sapiens, UniProt P36894)
CDK4-cyclinD1 = CDK4-cyclinD1 (Homo sapiens, UniProt P11802)
LZK = LZK (Homo sapiens, UniProt O43283)
CAMK2G = CAMK2G (Homo sapiens, UniProt Q13555)
WEE2 = WEE2 (Homo sapiens, UniProt P0C1S8)
CASK = CASK (Homo sapiens, UniProt O14936)
FGFR2 = FGFR2 (Homo sapiens, UniProt P21802)
PIK3CA(H1047Y) = PIK3CA(H1047Y) (Homo sapiens, UniProt P42336, H1047Y)
CDC2L5 = CDC2L5 (Homo sapiens, UniProt Q14004)
EPHA1 = EPHA1 (Homo sapiens, UniProt P21709)

Sequence of CAMK2G (Q13555 whole entry): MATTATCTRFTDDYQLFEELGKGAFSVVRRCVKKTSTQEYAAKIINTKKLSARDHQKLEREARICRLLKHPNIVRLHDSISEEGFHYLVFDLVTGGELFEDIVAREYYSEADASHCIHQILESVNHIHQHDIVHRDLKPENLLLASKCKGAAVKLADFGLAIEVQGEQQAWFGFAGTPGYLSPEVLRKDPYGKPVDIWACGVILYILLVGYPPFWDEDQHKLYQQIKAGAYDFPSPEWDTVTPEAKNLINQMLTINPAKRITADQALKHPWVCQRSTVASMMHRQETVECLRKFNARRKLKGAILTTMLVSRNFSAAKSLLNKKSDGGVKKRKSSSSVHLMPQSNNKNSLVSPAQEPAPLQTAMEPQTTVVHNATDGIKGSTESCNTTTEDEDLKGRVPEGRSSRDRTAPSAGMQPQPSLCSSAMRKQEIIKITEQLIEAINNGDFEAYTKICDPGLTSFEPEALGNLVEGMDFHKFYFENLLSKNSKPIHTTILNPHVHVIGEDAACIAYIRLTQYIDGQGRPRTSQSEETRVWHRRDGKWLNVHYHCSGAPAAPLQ
Sequence of NEK6 (Q9HC98 whole entry): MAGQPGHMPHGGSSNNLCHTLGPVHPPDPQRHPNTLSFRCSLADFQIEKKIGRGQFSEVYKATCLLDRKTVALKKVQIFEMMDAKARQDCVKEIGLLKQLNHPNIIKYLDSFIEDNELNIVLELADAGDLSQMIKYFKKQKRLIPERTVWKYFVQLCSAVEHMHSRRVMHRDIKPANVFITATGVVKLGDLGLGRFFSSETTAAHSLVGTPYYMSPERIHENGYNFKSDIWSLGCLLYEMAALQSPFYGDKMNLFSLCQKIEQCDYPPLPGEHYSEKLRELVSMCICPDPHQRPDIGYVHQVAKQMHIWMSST
Sequence of RET(V804L) (P07949 whole entry V804L): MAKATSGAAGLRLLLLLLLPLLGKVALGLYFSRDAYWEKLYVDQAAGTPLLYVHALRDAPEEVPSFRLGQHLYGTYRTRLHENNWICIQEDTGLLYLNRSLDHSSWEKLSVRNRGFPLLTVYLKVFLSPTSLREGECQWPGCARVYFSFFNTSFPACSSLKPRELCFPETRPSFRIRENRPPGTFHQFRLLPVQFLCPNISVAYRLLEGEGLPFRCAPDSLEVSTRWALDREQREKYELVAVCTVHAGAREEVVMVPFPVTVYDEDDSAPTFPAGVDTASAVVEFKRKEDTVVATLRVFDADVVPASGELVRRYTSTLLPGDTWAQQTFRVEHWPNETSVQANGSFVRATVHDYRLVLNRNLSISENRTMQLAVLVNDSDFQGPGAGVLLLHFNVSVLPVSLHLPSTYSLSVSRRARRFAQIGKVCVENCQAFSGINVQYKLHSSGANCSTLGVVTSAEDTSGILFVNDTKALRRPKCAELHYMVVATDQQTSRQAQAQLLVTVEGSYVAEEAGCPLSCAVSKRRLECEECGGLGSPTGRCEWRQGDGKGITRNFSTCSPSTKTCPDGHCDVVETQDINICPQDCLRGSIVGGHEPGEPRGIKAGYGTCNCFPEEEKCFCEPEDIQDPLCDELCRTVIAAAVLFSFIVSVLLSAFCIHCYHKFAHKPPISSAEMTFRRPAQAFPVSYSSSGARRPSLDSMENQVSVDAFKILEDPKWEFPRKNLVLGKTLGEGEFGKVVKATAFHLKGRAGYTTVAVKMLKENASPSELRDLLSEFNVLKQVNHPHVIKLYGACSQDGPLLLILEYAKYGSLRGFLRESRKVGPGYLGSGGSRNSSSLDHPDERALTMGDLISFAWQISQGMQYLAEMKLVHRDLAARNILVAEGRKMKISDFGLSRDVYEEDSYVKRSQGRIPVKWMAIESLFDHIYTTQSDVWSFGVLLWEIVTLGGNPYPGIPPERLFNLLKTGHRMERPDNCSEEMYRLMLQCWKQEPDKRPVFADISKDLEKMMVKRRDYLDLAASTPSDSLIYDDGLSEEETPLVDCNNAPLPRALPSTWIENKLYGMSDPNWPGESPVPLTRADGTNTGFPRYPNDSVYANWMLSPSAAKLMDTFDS
Sequence of ALK(L1196M) (Q9UM73 whole entry L1196M): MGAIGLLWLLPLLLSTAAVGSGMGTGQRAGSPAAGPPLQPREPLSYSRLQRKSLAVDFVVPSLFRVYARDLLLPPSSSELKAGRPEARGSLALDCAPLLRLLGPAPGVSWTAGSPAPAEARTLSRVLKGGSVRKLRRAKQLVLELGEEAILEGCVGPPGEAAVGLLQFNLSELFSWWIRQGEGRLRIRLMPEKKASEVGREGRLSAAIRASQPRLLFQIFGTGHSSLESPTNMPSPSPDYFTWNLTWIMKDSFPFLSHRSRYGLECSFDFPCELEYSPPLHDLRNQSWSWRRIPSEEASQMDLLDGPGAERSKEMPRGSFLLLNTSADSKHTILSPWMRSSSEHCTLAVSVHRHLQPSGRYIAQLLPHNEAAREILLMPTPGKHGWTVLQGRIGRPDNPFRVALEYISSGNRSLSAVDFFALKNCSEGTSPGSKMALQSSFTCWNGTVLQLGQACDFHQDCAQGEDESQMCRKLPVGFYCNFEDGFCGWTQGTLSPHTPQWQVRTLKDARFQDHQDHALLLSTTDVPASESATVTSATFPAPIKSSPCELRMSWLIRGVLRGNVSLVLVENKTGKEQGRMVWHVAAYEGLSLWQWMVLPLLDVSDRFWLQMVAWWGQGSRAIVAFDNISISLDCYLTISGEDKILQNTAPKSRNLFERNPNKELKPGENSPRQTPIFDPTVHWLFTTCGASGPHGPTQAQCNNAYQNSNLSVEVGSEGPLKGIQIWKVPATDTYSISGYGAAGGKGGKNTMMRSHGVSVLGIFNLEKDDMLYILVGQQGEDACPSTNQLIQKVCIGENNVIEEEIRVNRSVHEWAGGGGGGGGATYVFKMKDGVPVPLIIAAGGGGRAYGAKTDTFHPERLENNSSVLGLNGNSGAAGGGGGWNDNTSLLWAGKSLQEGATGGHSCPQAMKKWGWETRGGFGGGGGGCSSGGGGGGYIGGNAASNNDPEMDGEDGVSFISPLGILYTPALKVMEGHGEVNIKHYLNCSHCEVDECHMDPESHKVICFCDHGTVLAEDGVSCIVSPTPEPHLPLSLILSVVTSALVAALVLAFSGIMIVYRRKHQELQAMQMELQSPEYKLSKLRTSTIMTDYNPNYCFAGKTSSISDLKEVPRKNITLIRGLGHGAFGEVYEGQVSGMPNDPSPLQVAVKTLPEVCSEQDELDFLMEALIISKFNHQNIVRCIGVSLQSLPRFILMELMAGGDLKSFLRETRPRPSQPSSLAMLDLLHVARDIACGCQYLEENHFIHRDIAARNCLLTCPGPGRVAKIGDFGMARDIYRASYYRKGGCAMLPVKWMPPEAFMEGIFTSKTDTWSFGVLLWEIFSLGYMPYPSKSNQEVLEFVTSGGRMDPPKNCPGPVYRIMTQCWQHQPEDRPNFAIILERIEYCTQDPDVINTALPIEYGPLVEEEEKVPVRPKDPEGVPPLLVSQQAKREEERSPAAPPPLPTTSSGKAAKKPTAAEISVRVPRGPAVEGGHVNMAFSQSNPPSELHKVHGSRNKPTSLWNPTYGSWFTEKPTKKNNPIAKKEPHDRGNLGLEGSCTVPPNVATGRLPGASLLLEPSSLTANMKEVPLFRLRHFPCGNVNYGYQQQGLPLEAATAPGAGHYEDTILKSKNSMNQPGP
Sequence of PIK3CA(H1047Y) (P42336 whole entry H1047Y): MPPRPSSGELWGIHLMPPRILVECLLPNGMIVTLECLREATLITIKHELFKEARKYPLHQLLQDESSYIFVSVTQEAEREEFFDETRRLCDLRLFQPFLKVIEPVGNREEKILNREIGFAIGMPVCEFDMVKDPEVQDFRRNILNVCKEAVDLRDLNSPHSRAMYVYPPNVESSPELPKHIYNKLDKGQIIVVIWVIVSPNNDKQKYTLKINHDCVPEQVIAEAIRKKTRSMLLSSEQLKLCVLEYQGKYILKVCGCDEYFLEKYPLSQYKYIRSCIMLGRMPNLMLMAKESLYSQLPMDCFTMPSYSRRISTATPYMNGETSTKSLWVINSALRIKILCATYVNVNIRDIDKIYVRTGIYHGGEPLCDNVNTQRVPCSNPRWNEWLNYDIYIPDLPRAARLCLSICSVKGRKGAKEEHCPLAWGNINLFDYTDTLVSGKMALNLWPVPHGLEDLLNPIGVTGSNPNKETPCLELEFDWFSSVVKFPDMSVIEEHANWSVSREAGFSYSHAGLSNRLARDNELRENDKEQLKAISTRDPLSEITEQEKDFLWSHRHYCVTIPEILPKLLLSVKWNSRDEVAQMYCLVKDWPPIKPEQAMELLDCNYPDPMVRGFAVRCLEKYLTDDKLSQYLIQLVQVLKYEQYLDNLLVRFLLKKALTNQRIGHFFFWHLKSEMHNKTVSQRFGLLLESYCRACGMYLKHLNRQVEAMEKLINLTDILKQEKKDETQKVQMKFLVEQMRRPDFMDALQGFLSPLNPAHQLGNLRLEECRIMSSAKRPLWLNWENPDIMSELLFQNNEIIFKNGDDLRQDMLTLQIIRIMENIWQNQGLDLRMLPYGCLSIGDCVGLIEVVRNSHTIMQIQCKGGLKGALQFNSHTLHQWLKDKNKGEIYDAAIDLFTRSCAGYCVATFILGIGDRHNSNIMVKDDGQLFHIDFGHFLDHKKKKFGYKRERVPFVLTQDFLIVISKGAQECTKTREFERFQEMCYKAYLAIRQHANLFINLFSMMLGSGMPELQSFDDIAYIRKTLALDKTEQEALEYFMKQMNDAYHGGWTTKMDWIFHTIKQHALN
Sequence of PIK3CA(H1047L) (P42336 whole entry H1047L): as the sequence (P42336 whole entry H1047Y) above, with Y1047L counted along it
Sequence of ERK2 (P28482 whole entry): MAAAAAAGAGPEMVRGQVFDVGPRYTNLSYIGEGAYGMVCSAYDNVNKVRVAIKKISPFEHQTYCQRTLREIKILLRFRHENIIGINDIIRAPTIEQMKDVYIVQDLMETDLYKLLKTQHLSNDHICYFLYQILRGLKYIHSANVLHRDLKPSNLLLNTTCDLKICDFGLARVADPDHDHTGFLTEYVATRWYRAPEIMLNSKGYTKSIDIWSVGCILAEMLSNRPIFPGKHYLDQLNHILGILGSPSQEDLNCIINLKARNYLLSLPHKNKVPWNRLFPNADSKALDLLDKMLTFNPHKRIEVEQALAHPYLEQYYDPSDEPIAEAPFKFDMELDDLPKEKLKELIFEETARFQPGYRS

## CNc1ncc2cc(-c3ccc(-c4cccc(C)n4)cc3Cl)c(=O)n(C[C@H]3OC[C@H](N)CO3)c2n1 [compound 6, G-5555]
PIK3CA(H1047L)
  Percent Control: 100%
TAOK2
  Percent Control: 100%
RET(V804L)
  Percent Control: 100%
MET(Y1235D)
  Percent Control: 93%
EGFR(L858R)
  Percent Control: 85%
RIOK1
  Percent Control: 100%
LIMK2
  Percent Control: 100%
TSSK1B
  Percent Control: 100%
PKAC-beta
  Percent Control: 95%
SNRK
  Percent Control: 89%
ADCK4
  Percent Control: 100%
GRK7
  Percent Control: 89%
NEK6
  Percent Control: 100%
NEK2
  Percent Control: 60%
NEK10
  Percent Control: 100%
FRK
  Percent Control: 71%
ALK(L1196M)
  Percent Control: 100%
DAPK1
  Percent Control: 100%
GRK4
  Percent Control: 100%
ERK2
  Percent Control: 86%
BMPR1A
  Percent Control: 85%
CDK4-cyclinD1
  Percent Control: 99%
LZK
  Percent Control: 100%
CAMK2G
  Percent Control: 100%
WEE2
  Percent Control: 100%
CASK
  Percent Control: 100%
FGFR2
  Percent Control: 100%
PIK3CA(H1047Y)
  Percent Control: 86%
CDC2L5
  Percent Control: 97%
EPHA1
  Percent Control: 34%
